In patent US9029399B2, “17α-hydroxylase/C17,20-lyase inhibitors” (Novartis AG, priority 2011, dated 2015):
pIC50: −log10 of the molar value.

biological target: Human CYP17 enzyme (Cytochrome P450, 17-20 lyase) (Homo sapiens (Human), UniProt P05093); test: CYP17 lyase assay, recombinant human CYP17 enzyme, 17-α-hydroxy pregnenolone [21-3H] substrate; assay type: biochemical; settings: recombinant human CYP17, first value of Human/Rat cell; read-out: Lyase IC 50 Human
Source text: 1) Cvtochrome P450, 17-20 Lyase (CYP17-Lyase) Assay Development Using Recombinant Human CYP17 Enzyme and 17-α-Hydroxy Pregnenolone [21-3H] as the Substrate
Cytochrome P450, 17-α-Hydroxylase, 17-20 lyase (CYP17) is a multi functional enzyme that plays a key role in the biosynthesis of steroid hormones. […] In the hydroxylation reaction, it converts progesterone and pregnenolone to the corresponding hydroxylated products 17-α-hydroxy progesterone and 17-α-hydroxy pregnenolone. In the lyase reaction, it catalyzes the conversion of these hydroxylated substrates to Androstenedione and Dehydroepiandrosterone (DHEA) respectively. In the Cyp17 lyase assay described here, the conversion of 17-α-hydroxy pregnenolone to Dehydroepiandrosterone and acetic acid is being monitored.
The conversion of 17-α-hydroxy pregnenolone to Dehydroepiandrosterone is accompanied by the release of acetic acid. In the Cyp17 lyase assay, 17-α-hydroxy pregnenolone labeled with tritium (3H) at position 21 is used as the substrate. Chloroform extraction removes the radioactive steroids and acetic acid is taken into aqueous layer. The tritiated acetic acid released in the assay thus extracted is quantified to determine the enzyme activity.
Human Cyp 17 gene was cloned and expressed in Adenoviral expression system in A549 cell lines. The purified cell membrane preparations were used as the source for Human CYP17 enzyme. Total protein concentration: 8 mg/mL.
For routine screening, the assay was set up with 16 μg of enzyme in 50 μL reaction volume. 17α-hydroxy pregnenolone [21-3H] was added to a final concentration of […] NADPH is used at a final concentration of 4.2 mM. Total reaction volume was made up to 50 μL with 50 mM Phosphate buffer pH 7.5. The reaction mixture was incubated at room temperature for 90 minutes with gentle shaking. The reaction was stopped by the addition of 100 μl, of buffer. 500 μl, of 5% freshly prepared activated charcoal was added to the solution and mixed well by vortexing. The samples were centrifuged at 17568×g for 5 minutes. (14000 rpm). The supernatant was carefully transferred to fresh tube and 1.3 mL of scintillation fluid was added, mixed by vortexing.
The measurements were carried out in 2.0 mL Eppendorf™ tubes. Each tube was counted for 1 minute. The amount of tritiated acetic acid released is proportional to the lyase activity. Percent lyase activity in presence of inhibitor was calculated using the formula given below.
[formula] Sample: Enzyme reaction in presence of inhibitor. Positive control: Enzyme reaction without inhibitor but containing DMSO at 1% final concentration. Blank—Contains all reagents except enzyme. % Inhibition=100%−% Lyase activity
For IC50 determination, the % inhibition was plotted as a function of inhibitor concentration. The data was fitted to sigmoidal equation using Graphpad Prism® software IV to generate IC50 values.

Chain of Human CYP17 enzyme (Cytochrome P450, 17-20 lyase) (P05093 whole entry): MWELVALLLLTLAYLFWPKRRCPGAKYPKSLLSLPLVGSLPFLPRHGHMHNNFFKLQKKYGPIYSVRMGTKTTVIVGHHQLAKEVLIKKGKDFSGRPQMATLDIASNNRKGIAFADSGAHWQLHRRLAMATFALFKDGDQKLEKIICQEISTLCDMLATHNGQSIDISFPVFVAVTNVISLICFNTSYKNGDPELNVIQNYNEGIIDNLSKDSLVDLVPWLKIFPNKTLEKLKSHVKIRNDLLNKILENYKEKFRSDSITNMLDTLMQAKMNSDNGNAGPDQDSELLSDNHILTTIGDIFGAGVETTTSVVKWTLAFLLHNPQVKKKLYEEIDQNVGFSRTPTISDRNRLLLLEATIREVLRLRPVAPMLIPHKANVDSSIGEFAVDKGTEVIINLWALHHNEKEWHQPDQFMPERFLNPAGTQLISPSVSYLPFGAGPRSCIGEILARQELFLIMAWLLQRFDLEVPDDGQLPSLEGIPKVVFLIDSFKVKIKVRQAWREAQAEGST

**Q.** `O=C1N(c2ccc3ccccc3c2)CCN1c1cnccc1C1CC1` [Example 3A, 1-(4-cyclopropylpyridin-3-yl)-3-(naphthalen-2-yl)imidazolidin-2-one] was tested. Which pIC50 did it give?
**A.** 7.59

**Q.** With `O=C1N(c2ccc3sccc3c2)CCN1c1cnccc1C1CC1` [Example 4A, 1-(benzo[b]thiophen-5-yl)-3-(4-cyclopropylpyridin-3-yl)imidazolidin-2-one] as the compound, how does the pIC50 read?
**A.** 7.89

**Q.** `O=C1N(c2cccc(C(F)(F)F)c2)CCN1c1cnccc1C1CC1` [Example 5A, 1-(4-cyclopropylpyridin-3-yl)-3-(3-(trifluoromethyl)phenyl)imidazolidin-2-one] was tested. Which pIC50 did it give?
**A.** 8.22

**Q.** With `O=C1N(c2cc3ccccc3s2)CCN1c1cnccc1C1CC1` [Example 6A, 1-(benzo[b]thiophen-2-yl)-3-(4-cyclopropylpyridin-3-yl)imidazolidin-2-one] as the compound, how does the pIC50 read?
**A.** 7.89

**Q.** `Cc1nc(Cl)cc(N2CCN(c3cnccc3C3CC3)C2=O)n1` [Example 7A, 1-(6-chloro-2-methylpyrimidin-4-yl)-3-(4-cyclopropylpyridin-3-yl)imidazolidin-2-one] was tested. Which pIC50 did it give?
**A.** 7.39

**Q.** How did the pIC50 turn out when `O=C1N(c2cc(C(F)(F)F)ccn2)CCN1c1cnccc1C1CC1` [Example 8A, 1-(4-cyclopropylpyridin-3-yl)-3-(4-(trifluoromethyl)pyridin-2-yl)imidazolidin-2-one] was run?
**A.** 7.66

**Q.** With `O=C1N(c2cc(Cl)ncn2)CCN1c1cnccc1C1CC1` [Example 10A, 1-(6-chloropyrimidin-4-yl)-3-(4-cyclopropylpyridin-3-yl)imidazolidin-2-one] as the compound, how does the pIC50 read?
**A.** 6.92

**Q.** `O=C1N(c2ccnc(C(F)(F)F)n2)CCN1c1cnccc1C1CC1` [Example 12A, 1-(4-cyclopropylpyridin-3-yl)-3-(2-(trifluoromethyl)pyrimidin-4-yl)imidazolidin-2-one] was tested. Which pIC50 did it give?
**A.** 7.00

**Q.** With `O=C1N(c2ccc3scc(C(F)(F)F)c3c2)CCN1c1cnccc1C1CC1` [Example 13A, 1-(4-cyclopropylpyridin-3-yl)-3-(3-(trifluoromethyl)benzo[b]thiophen-5-yl)imidazolidin-2-one] as the compound, how does the pIC50 read?
**A.** 7.96

**Q.** With `O=C1N(c2ccc3sc(F)cc3c2)CCN1c1cnccc1C1CC1` [Example 14A, 1-(4-cyclopropylpyridin-3-yl)-3-(2-fluorobenzo[b]thiophen-5-yl)imidazolidin-2-one] as the compound, how does the pIC50 read?
**A.** 7.59

**Q.** `Cc1csc2ccc(N3CCN(c4cnccc4C4CC4)C3=O)cc12` [Example 15A, 1-(4-cyclopropylpyridin-3-yl)-3-(3-methylbenzo[b]thiophen-5-yl)imidazolidin-2-one] was tested. Which pIC50 did it give?
**A.** 8.17

**Q.** With `O=C1N(c2ccc3ccsc3c2)CCN1c1cnccc1C1CC1` [Example 16A, 1-(benzo[b]thiophen-6-yl)-3-(4-cyclopropylpyridin-3-yl)imidazolidin-2-one] as the compound, how does the pIC50 read?
**A.** 8.15

**Q.** With `O=C1N(c2ccc3c(c2)OC(F)(F)O3)CCN1c1cnccc1C1CC1` [Example 17A, 1-(4-cyclopropylpyridin-3-yl)-3-(2,2-difluorobenzo[d][1,3]dioxol-5-yl)imidazolidin-2-one] as the compound, how does the pIC50 read?
**A.** 7.24

**Q.** How did the pIC50 turn out when `Cc1csc2cc(N3CCN(c4cnccc4C4CC4)C3=O)ccc12` [Example 18A, 1-(4-cyclopropylpyridin-3-yl)-3-(3-methylbenzo[b]thiophen-6-yl)imidazolidin-2-one] was run?
**A.** 7.12

**Q.** With `Cc1coc2ccc(N3CCN(c4cnccc4C4CC4)C3=O)cc12` [Example 19A, 1-(4-cyclopropylpyridin-3-yl)-3-(3-methylbenzofuran-5-yl)imidazolidin-2-one] as the compound, how does the pIC50 read?
**A.** 8.57

**Q.** `O=C1N(c2ccc3sc(Cl)cc3c2)CCN1c1cnccc1C1CC1` [Example 20A, 1-(2-chlorobenzo[b]thiophen-5-yl)-3-(4-cyclopropylpyridin-3-yl)imidazolidin-2-one] was tested. Which pIC50 did it give?
**A.** 6.97

**Q.** `O=C1N(c2ccc3c(c2)CCC3)CCN1c1cnccc1C1CC1` [Example 21A, 1-(4-cyclopropylpyridin-3-yl)-3-(2,3-dihydro-1H-inden-5-yl)imidazolidin-2-one] was tested. Which pIC50 did it give?
**A.** 7.77

**Q.** With `O=C1N(c2cc3cc(F)ccc3s2)CCN1c1cnccc1C1CC1` [Example 22A, 1-(4-cyclopropylpyridin-3-yl)-3-(5-fluorobenzo[b]thiophen-2-yl)imidazolidin-2-one] as the compound, how does the pIC50 read?
**A.** 8.15

**Q.** With `O=C1N(c2ccc3c(C(F)(F)F)csc3c2)CCN1c1cnccc1C1CC1` [Example 23A, 1-(4-cyclopropylpyridin-3-yl)-3-(3-(trifluoromethyl)benzo[b]thiophen-6-yl)imidazolidin-2-one] as the compound, how does the pIC50 read?
**A.** 5.92

**Q.** How did the pIC50 turn out when `Cc1c(F)sc2ccc(N3CCN(c4cnccc4C4CC4)C3=O)cc12` [Example 24A, 1-(4-Cyclopropyl-pyridin-3-yl)-3-(2-fluoro-3-methylbenzo[b]thiophen-5-yl)-imidazolidin-2-one] was run?
**A.** 7.72

**Q.** With `O=C1N(c2ccc3cc(F)sc3c2)CCN1c1cnccc1C1CC1` [Example 25A, 1-(4-cyclopropyl-pyridin-3-yl)-3-(2-fluoro-benzo(b)thiophene-6-yl)imidazolidin-2-one] as the compound, how does the pIC50 read?
**A.** 7.52

**Q.** With `O=C1N(c2cc(F)c3ccsc3c2)CCN1c1cnccc1C1CC1` [Example 26A, 1-(4-cyclopropyl-pyridin-3-yl)-3-(4-fluoro-benzo[b]thiophen-6-yl)imidazolidin-2-one] as the compound, how does the pIC50 read?
**A.** 8.22

**Q.** With `O=C1N(c2cc3sccc3cc2F)CCN1c1cnccc1C1CC1` [Example 27A, 1-(4-cyclopropyl-pyridin-3-yl)-3-(5-fluoro-benzo[b]thiophen-6-yl)imidazolidin-2-one] as the compound, how does the pIC50 read?
**A.** 6.34

**Q.** With `O=C1N(c2cc3ccsc3cc2F)CCN1c1cnccc1C1CC1` [Example 28A, 1-(4-cyclopropylpyridin-3-yl)-3-(6-fluorobenzo[b]thiophen-5-yl)imidazolidin-2-one] as the compound, how does the pIC50 read?
**A.** 6.26

**Q.** With `O=C1N(c2ccnc(Cl)c2)[C@@H]2C[C@@H]2N1c1cnccc1C1CC1` [Example 30A-I, (1R,5S)-2-(2-chloropyridin-4-yl)-4-(4-cyclopropylpyridin-3-yl)-2,4-diazabicyclo[3.1.0]hexan-3-one] as the compound, how does the pIC50 read?
**A.** 6.79

**Q.** With `O=C1N(c2cnccc2C2CC2)[C@@H]2C[C@@H]2N1c1ccnc(Cl)c1` [Example 30A-II, (1S,5R)-2-(2-chloropyridin-4-yl)-4-(4-cyclopropylpyridin-3-yl)-2,4-diazabicyclo[3.1.0]hexan-3-one] as the compound, how does the pIC50 read?
**A.** 8.22

**Q.** With `COc1cc(N2C(=O)N(c3cnccc3C3CC3)[C@H]3C[C@H]32)ccn1` [Example 31A-1, (1S,5R)-2-(4-cyclopropylpyridin-3-yl)-4-(2-methoxypyridin-4-yl)-2,4-diazabicyclo[3.1.0]hexan-3-one] as the compound, how does the pIC50 read?
**A.** 6.77

**Q.** With `COc1cc(N2C(=O)N(c3cnccc3C3CC3)[C@@H]3C[C@@H]32)ccn1` [Example 31A-II, (1R,5S)-2-(4-cyclopropylpyridin-3-yl)-4-(2-methoxypyridin-4-yl)-2,4-diazabicyclo[3.1.0]hexan-3-one] as the compound, how does the pIC50 read?
**A.** 7.92

**Q.** With `O=C1N(c2ccnc(C(F)(F)F)c2)[C@@H]2C[C@@H]2N1c1cnccc1C1CC1` [Example 32A-I, (1S,5R)-2-(4-cyclopropylpyridin-3-yl)-4-(2-(trifluoromethyl)pyridin-4-yl)-2,4-diazabicyclo[3.1.0]hexan-3-one] as the compound, how does the pIC50 read?
**A.** 6.74

**Q.** With `O=C1N(c2ccnc(Cl)c2)CCN1c1cnccc1C1(O)CCC1` [Example 33A, 1-(2-chloro-pyridin-4-yl)-3-[4-(1-hydroxy-cyclobutyl)-pyridin-3-yl]imidazolidin-2-one] as the compound, how does the pIC50 read?
**A.** 7.35

**Q.** With `O=C1N(c2ccnc(Cl)c2)CCN1c1cnccc1C1CCCC1` [Example 34A, 1-(2-chloropyridin-4-yl)-3-(4-cyclopentyl-pyridin-3-yl)-imidazolidin-2-one] as the compound, how does the pIC50 read?
**A.** 7.89

**Q.** How did the pIC50 turn out when `O=C1N(c2ccnc(Cl)c2)CCN1c1cnccc1C1(O)CCCC1` [Example 35A, 1-(2-chloropyridin-4-yl)-3-[4-(1-hydroxycyclopentyl)-pyridin-3-yl]-imidazolidin-2-one] was run?
**A.** 6.47

**Q.** How did the pIC50 turn out when `O=C1N(c2cccc(C(F)(F)F)c2)CCN1c1cnccc1C1(O)CC1` [Example 36A, 1-[4-(1-hydroxy-cyclopropyl)-pyridin-3-yl]-3-(3-trifluoromethyl-phenyl)-imidazolidin-2-one] was run?
**A.** 7.57

**Q.** How did the pIC50 turn out when `O=C1N(c2cc(Cl)nc(C(F)(F)F)c2)CCN1c1cnccc1C1CC1` [Example 37A, 1-(2-chloro-6-(trifluoromethyl)pyridin-4-yl)-3-(4-cyclopropylpyridin-3-yl)imidazolidin-2-one] was run?
**A.** 8.30

**Q.** How did the pIC50 turn out when `O=C1N(c2cc(C3CC3)ncn2)CCN1c1cnccc1C1CC1` [Example 38A, 1-(4-cyclopropylpyridin-3-yl)-3-(6-cyclopropylpyrimidin-4-yl)imidazolidin-2-one] was run?
**A.** 7.32
